Measurements as given in publication PMC5218480 (PLoS ONE, 2017).

System: MV-4-11 cells
Test: Gene expression microarray analysis (Affymetrix PrimeView) and GSEA
Assay type: cell-based, human
Parameters: RFU PODN (11730768_x_at) / Fold change /veh PODN (11730768_x_at) / RFU LINC00158 (11744669_a_at) / Fold change /veh LINC00158 (11744669_a_at) / RFU DUSP10 (11751237_a_at) / Fold change /veh DUSP10 (11751237_a_at) / RFU ID3 (11757404_x_at) / Fold change /veh ID3 (11757404_x_at) / RFU PLEKHG5 (11737974_s_at) / Fold change /veh PLEKHG5 (11737974_s_at) / RFU LRRC4B (11730491_at) / Fold change /veh LRRC4B (11730491_at) / RFU GIMAP4 (11747438_a_at) / Fold change /veh GIMAP4 (11747438_a_at) / RFU KRT8 (11758183_x_at) / Fold change /veh KRT8 (11758183_x_at) / RFU CNN1 (11734310_a_at) / Fold change /veh CNN1 (11734310_a_at) / RFU VPS37D (11726825_at) / Fold change /veh VPS37D (11726825_at) / RFU C10orf10 (11716522_x_at) / Fold change /veh C10orf10 (11716522_x_at) / RFU KIR2DL2 /// KIR2DL4 /// KIR2DL5A /// KIR2DL5B /// KIR2DS1 /// KIR2DS2 /// KIR2DS3 /// KIR2DS4 /// KIR3DL3 /// KIR3DL3 /// KIR3DS1 (11738374_at) / Fold change /veh KIR2DL2 /// KIR2DL4 /// KIR2DL5A /// KIR2DL5B /// KIR2DS1 /// KIR2DS2 /// KIR2DS3 /// KIR2DS4 /// KIR3DL3 /// KIR3DL3 /// KIR3DS1 (11738374_at) / RFU C1QL1 (11718748_at) / Fold change /veh C1QL1 (11718748_at) / RFU TMPRSS4 (11747572_a_at) / Fold change /veh TMPRSS4 (11747572_a_at) / RFU HAMP (11756126_x_at) / Fold change /veh HAMP (11756126_x_at) / RFU RNFT2 (11725882_a_at) / Fold change /veh RNFT2 (11725882_a_at) / RFU NR4A2 (11747474_a_at) / Fold change /veh NR4A2 (11747474_a_at) / RFU ABCC12 (11746883_a_at) / Fold change /veh ABCC12 (11746883_a_at) / RFU TMEM136 (11760407_x_at) / Fold change /veh TMEM136 (11760407_x_at) / RFU CLDN22 /// WWC2 (11732394_at) / Fold change /veh CLDN22 /// WWC2 (11732394_at) / RFU HLA-DPB1 (11760878_x_at) / Fold change /veh HLA-DPB1 (11760878_x_at) / RFU SPINT1 (11716480_a_at) / Fold change /veh SPINT1 (11716480_a_at) / RFU GAP43 (11754022_s_at) / Fold change /veh GAP43 (11754022_s_at) / RFU A4GNT (11735810_at) / Fold change /veh A4GNT (11735810_at) / RFU PRB3 (11715151_x_at) / Fold change /veh PRB3 (11715151_x_at) / RFU TUBB4B (11761932_at) / Fold change /veh TUBB4B (11761932_at) / RFU CAPN14 (11732068_a_at) / Fold change /veh CAPN14 (11732068_a_at) / RFU TMCC2 (11721928_a_at) / Fold change /veh TMCC2 (11721928_a_at) / RFU IRGQ (11745062_a_at) / Fold change /veh IRGQ (11745062_a_at) / RFU FAM174B (11720279_a_at) / Fold change /veh FAM174B (11720279_a_at) / RFU TMPRSS4 (11748680_a_at) / Fold change /veh TMPRSS4 (11748680_a_at) / RFU FAM212B (11763350_a_at) / Fold change /veh FAM212B (11763350_a_at) / RFU PLEKHG5 (11743358_a_at) / Fold change /veh PLEKHG5 (11743358_a_at) / RFU ZSCAN30 (11745921_a_at) / Fold change /veh ZSCAN30 (11745921_a_at) / RFU CMKLR1 (11741424_a_at) / Fold change /veh CMKLR1 (11741424_a_at) / RFU LOC101060620 /// MAPK8IP1 (11723275_at) / Fold change /veh LOC101060620 /// MAPK8IP1 (11723275_at) / RFU SPTSSB (11747773_x_at) / Fold change /veh SPTSSB (11747773_x_at) / RFU PRSS12 (11739890_at) / Fold change /veh PRSS12 (11739890_at) / RFU BIN1 (11741810_x_at) / Fold change /veh BIN1 (11741810_x_at) / RFU WNT11 (11732464_a_at) / Fold change /veh WNT11 (11732464_a_at) / RFU C10orf10 (11716521_a_at) / Fold change /veh C10orf10 (11716521_a_at) / RFU C5orf56 (11738089_at) / Fold change /veh C5orf56 (11738089_at) / RFU CYB561 (11721691_x_at) / Fold change /veh CYB561 (11721691_x_at) / RFU ANKRD19P (11752326_a_at) / Fold change /veh ANKRD19P (11752326_a_at) / RFU OR2T12 /// OR2T33 /// OR2T8 (11738714_s_at) / Fold change /veh OR2T12 /// OR2T33 /// OR2T8 (11738714_s_at) / RFU VCAN (11748164_a_at) / Fold change /veh VCAN (11748164_a_at) / RFU JSRP1 (11732532_at) / Fold change /veh JSRP1 (11732532_at) / RFU KRTAP10-11 (11738290_x_at) / Fold change /veh KRTAP10-11 (11738290_x_at) / RFU MYO3A (11730013_a_at) / Fold change /veh MYO3A (11730013_a_at) / RFU EBF3 (11725865_a_at) / Fold change /veh EBF3 (11725865_a_at) / RFU CAMK2N1 (11719241_x_at) / Fold change /veh CAMK2N1 (11719241_x_at) / RFU C5orf56 (11738088_a_at) / Fold change /veh C5orf56 (11738088_a_at) / RFU OLFML3 (11715873_a_at) / Fold change /veh OLFML3 (11715873_a_at) / RFU LOC100653217 /// NTM (11731650_a_at) / Fold change /veh LOC100653217 /// NTM (11731650_a_at) / RFU MAPK11 (11762145_a_at) / Fold change /veh MAPK11 (11762145_a_at) / RFU FIZ1 (11724087_x_at) / Fold change /veh FIZ1 (11724087_x_at) / RFU OASL (11726364_x_at) / Fold change /veh OASL (11726364_x_at) / RFU SOX15 (11748057_x_at) / Fold change /veh SOX15 (11748057_x_at) / RFU CD79A (11719716_a_at) / Fold change /veh CD79A (11719716_a_at) / RFU HIST1H1D (11736915_at) / Fold change /veh HIST1H1D (11736915_at) / RFU CASKIN2 (11723855_a_at) / Fold change /veh CASKIN2 (11723855_a_at) / RFU LOC730098 (11760151_x_at) / Fold change /veh LOC730098 (11760151_x_at) / RFU OR4N2 (11742367_at) / Fold change /veh OR4N2 (11742367_at) / RFU PRRT2 (11749266_a_at) / Fold change /veh PRRT2 (11749266_a_at) / RFU SNX32 (11753110_a_at) / Fold change /veh SNX32 (11753110_a_at) / RFU CDHR5 (11726645_a_at) / Fold change /veh CDHR5 (11726645_a_at) / RFU RCAN1 (11760418_a_at) / Fold change /veh RCAN1 (11760418_a_at) / RFU FAM167A (11723789_a_at) / Fold change /veh FAM167A (11723789_a_at) / RFU FAM26E (11764081_at) / Fold change /veh FAM26E (11764081_at) / RFU ISYNA1 (11749810_s_at) / Fold change /veh ISYNA1 (11749810_s_at) / RFU ACY1 (11761880_at) / Fold change /veh ACY1 (11761880_at) / RFU 11764098_at / Fold change /veh 11764098_at / RFU SAMD14 (11745864_x_at) / Fold change /veh SAMD14 (11745864_x_at) / RFU NPB (11741838_a_at) / Fold change /veh NPB (11741838_a_at) / RFU TMPRSS6 (11731388_a_at) / Fold change /veh TMPRSS6 (11731388_a_at) / RFU KRTAP10-2 (11738614_at) / Fold change /veh KRTAP10-2 (11738614_at) / RFU ARHGAP8 /// PRR5-ARHGAP8 (11727945_x_at) / Fold change /veh ARHGAP8 /// PRR5-ARHGAP8 (11727945_x_at) / RFU KRTAP5-7 /// NADSYN1 (11734609_at) / Fold change /veh KRTAP5-7 /// NADSYN1 (11734609_at) / RFU RASL12 (11751679_a_at) / Fold change /veh RASL12 (11751679_a_at) / RFU CDKN2B (11736163_a_at) / Fold change /veh CDKN2B (11736163_a_at) / RFU PRF1 (11729649_at) / Fold change /veh PRF1 (11729649_at) / RFU, ZNF638 /// ZNF638-IT1 / Fold change vs veh, ZNF638 /// ZNF638-IT1 / RFU, PANK3 / Fold change vs veh, PANK3 / RFU, SH3YL1 / Fold change vs veh, SH3YL1 / RFU, ZEB2 / Fold change vs veh, ZEB2 / RFU, NRIP1 / Fold change vs veh, NRIP1 / RFU, PTTG1IP / Fold change vs veh, PTTG1IP / RFU, CAPN2 / Fold change vs veh, CAPN2 / RFU, MED14 / Fold change vs veh, MED14 / RFU, SNORA58 / Fold change vs veh, SNORA58 / RFU, C1orf63 / Fold change vs veh, C1orf63 / RFU, LRRFIP1 / Fold change vs veh, LRRFIP1 / RFU, NDUFAF7 / Fold change vs veh, NDUFAF7 / RFU, SLC12A2 / Fold change vs veh, SLC12A2 / RFU, IBTK / Fold change vs veh, IBTK / RFU, ESF1 / Fold change vs veh, ESF1 / Fold change vs veh, TMEM50B / RFU, TAOK1 / Fold change vs veh, TAOK1 / RFU, ACBD3 / Fold change vs veh, ACBD3 / RFU, TMA16 / Fold change vs veh, TMA16 / RFU, RWDD3 / Fold change vs veh, RWDD3 / RFU, BCAT1 / Fold change vs veh, BCAT1 / RFU, EDEM3 / Fold change vs veh, EDEM3 / RFU, TMEM33 / Fold change vs veh, TMEM33 / RFU, WDR75 / Fold change vs veh, WDR75 / RFU, AHCTF1 / Fold change vs veh, AHCTF1 / RFU, TFRC / Fold change vs veh, TFRC / RFU, ZDHHC17 / Fold change vs veh, ZDHHC17 / RFU, NOM1 / Fold change vs veh, NOM1 / RFU, ARL8B / Fold change vs veh, ARL8B / RFU, ZBTB11 / Fold change vs veh, ZBTB11 / RFU, TAMM41 / Fold change vs veh, TAMM41 / RFU, KIAA1704 /// LOC100996395 / Fold change vs veh, KIAA1704 /// LOC100996395 / RFU, ING1 / Fold change vs veh, ING1 / RFU, TRMT61B / Fold change vs veh, TRMT61B / RFU, FUBP3 / Fold change vs veh, FUBP3 / RFU, TP53 / Fold change vs veh, TP53 / RFU, TNKS2 / Fold change vs veh, TNKS2 / RFU, ZFP14 / Fold change vs veh, ZFP14 / RFU, ACTR2 / Fold change vs veh, ACTR2 / RFU, PPP3R1 / Fold change vs veh, PPP3R1 / RFU, PIK3R1 / Fold change vs veh, PIK3R1 / RFU, HNRNPA1 / Fold change vs veh, HNRNPA1 / RFU, RNF170 / Fold change vs veh, RNF170 / RFU, ZNF28 / Fold change vs veh, ZNF28 / RFU, RNGTT / Fold change vs veh, RNGTT / RFU, OGT / Fold change vs veh, OGT / RFU, BRD1 / Fold change vs veh, BRD1 / RFU, MARS / Fold change vs veh, MARS / RFU, ZNF655 / Fold change vs veh, ZNF655 / RFU, FAHD1 / Fold change vs veh, FAHD1 / RFU, BDP1 / Fold change vs veh, BDP1 / RFU, LRRCC1 / Fold change vs veh, LRRCC1 / RFU, ARID1A / Fold change vs veh, ARID1A / RFU, ZNF146 / Fold change vs veh, ZNF146 / RFU, ZNF330 / Fold change vs veh, ZNF330 / RFU, GPN3 / Fold change vs veh, GPN3 / RFU, C9orf123 / Fold change vs veh, C9orf123 / RFU, N4BP2L2 / Fold change vs veh, N4BP2L2 / RFU, ARFIP1 / Fold change vs veh, ARFIP1 / RFU, FAM179B / Fold change vs veh, FAM179B / RFU, BCL10 / Fold change vs veh, BCL10 / RFU, UHRF1BP1L / Fold change vs veh, UHRF1BP1L / RFU, BET1 / Fold change vs veh, BET1 / RFU, CNOT2 / Fold change vs veh, CNOT2 / RFU, ZNF268 / Fold change vs veh, ZNF268 / Fold change vs veh, ZNF507 / RFU, DGCR2 / Fold change vs veh, DGCR2 / RFU, WDSUB1 / Fold change vs veh, WDSUB1 / Fold change vs veh, HSP90B1 /// MIR3652 / RFU, ADSS / Fold change vs veh, ADSS / RFU, GK / Fold change vs veh, GK / RFU, ZNF148 / Fold change vs veh, ZNF148 / RFU, TAF9 / Fold change vs veh, TAF9 / RFU, SLC1A5 / Fold change vs veh, SLC1A5 / RFU, SLMO2 / Fold change vs veh, SLMO2 / RFU, ABCC4 / Fold change vs veh, ABCC4 / RFU, LOC101060439 /// RAP1B / Fold change vs veh, LOC101060439 /// RAP1B / RFU, RFX7 / Fold change vs veh, RFX7 / RFU, GTPBP10 / Fold change vs veh, GTPBP10 / RFU, CNEP1R1 / Fold change vs veh, CNEP1R1 / RFU, BIVM-ERCC5 /// ERCC5 / Fold change vs veh, BIVM-ERCC5 /// ERCC5 / RFU, ILF3 / Fold change vs veh, ILF3 / RFU 11762660_at / Fold change /veh 11762660_at / RFU VCAN (11757783_s_at) / Fold change /veh VCAN (11757783_s_at) / RFU DDX43 (11728927_at) / Fold change /veh DDX43 (11728927_at) / RFU KRT8 (11758188_x_at) / Fold change /veh KRT8 (11758188_x_at) / RFU NKD1 (11759106_at) / Fold change /veh NKD1 (11759106_at) / RFU SRD5A1 (11742802_a_at) / Fold change /veh SRD5A1 (11742802_a_at) / RFU TPSAB1 /// TPSB2 (11721975_s_at) / Fold change /veh TPSAB1 /// TPSB2 (11721975_s_at) / RFU GSTM3 (11746129_a_at) / Fold change /veh GSTM3 (11746129_a_at) / RFU IL23R (11737362_x_at) / Fold change /veh IL23R (11737362_x_at) / RFU TMEM51 (11727254_a_at) / Fold change /veh TMEM51 (11727254_a_at) / RFU PIWIL2 (11732686_x_at) / Fold change /veh PIWIL2 (11732686_x_at) / RFU ORM1 (11744905_x_at) / Fold change /veh ORM1 (11744905_x_at) / RFU CCDC152 (11743942_at) / Fold change /veh CCDC152 (11743942_at) / RFU ECM1 (11717891_a_at) / Fold change /veh ECM1 (11717891_a_at) / RFU IL23R (11748794_a_at) / Fold change /veh IL23R (11748794_a_at) / RFU TNFAIP8L3 (11732012_x_at) / Fold change /veh TNFAIP8L3 (11732012_x_at) / RFU MBOAT4 (11741988_at) / Fold change /veh MBOAT4 (11741988_at) / RFU 11764193_at / Fold change /veh 11764193_at / RFU TMEM53 (11763286_at) / Fold change /veh TMEM53 (11763286_at) / RFU MAGEB2 (11727129_at) / Fold change /veh MAGEB2 (11727129_at) / RFU TMEM200A (11744735_a_at) / Fold change /veh TMEM200A (11744735_a_at) / RFU CCDC152 (11751479_a_at) / Fold change /veh CCDC152 (11751479_a_at) / RFU FAM211A (11726209_a_at) / Fold change /veh FAM211A (11726209_a_at) / RFU RGS16 (11746705_a_at) / Fold change /veh RGS16 (11746705_a_at) / RFU VCAN (11755009_s_at) / Fold change /veh VCAN (11755009_s_at) / RFU RHOB (11743442_s_at) / Fold change /veh RHOB (11743442_s_at) / RFU RGS16 (11720943_a_at) / Fold change /veh RGS16 (11720943_a_at) / RFU RGS16 (11720944_at) / Fold change /veh RGS16 (11720944_at) / RFU, VPS4B / Fold change vs veh, VPS4B / RFU, CREB1 / Fold change vs veh, CREB1 / RFU, DNAJC13 / Fold change vs veh, DNAJC13 / RFU, GNAQ / Fold change vs veh, GNAQ / RFU, CDK5R1 / Fold change vs veh, CDK5R1 / RFU, ZRANB3 / Fold change vs veh, ZRANB3 / RFU, CUL4A / Fold change vs veh, CUL4A / RFU, CCNY / Fold change vs veh, CCNY / RFU, UFL1 / Fold change vs veh, UFL1 / RFU, COG3 / Fold change vs veh, COG3 / RFU, DIAPH2 / Fold change vs veh, DIAPH2 / RFU, SKA2 / Fold change vs veh, SKA2 / RFU, AFF3 / Fold change vs veh, AFF3 / RFU, LMF1 / Fold change vs veh, LMF1 / RFU, IPO11 / Fold change vs veh, IPO11 / RFU, DFFB / Fold change vs veh, DFFB / RFU, FOXP1 / Fold change vs veh, FOXP1 / RFU, CARD8 / Fold change vs veh, CARD8 / RFU, STRN3 / Fold change vs veh, STRN3 / RFU, ADK / Fold change vs veh, ADK / RFU, RASSF2 / Fold change vs veh, RASSF2 / RFU, WIPF1 / Fold change vs veh, WIPF1 / RFU, LARP1B / Fold change vs veh, LARP1B / RFU, RASA1 / Fold change vs veh, RASA1 / RFU, RB1 / Fold change vs veh, RB1 / RFU, PPFIA1 / Fold change vs veh, PPFIA1 / RFU, MAT2A / Fold change vs veh, MAT2A / RFU, CCT5 / Fold change vs veh, CCT5 / RFU, WDR92 / Fold change vs veh, WDR92 / RFU, CUX1 / Fold change vs veh, CUX1 / RFU, TTC7A / Fold change vs veh, TTC7A / RFU, TMEM135 / Fold change vs veh, TMEM135 / RFU, DEPTOR / Fold change vs veh, DEPTOR / RFU, CPM / Fold change vs veh, CPM / RFU, DNAJB6 / Fold change vs veh, DNAJB6 / RFU, CACNA2D3 / Fold change vs veh, CACNA2D3 / RFU, DTX4 / Fold change vs veh, DTX4 / RFU, TFCP2 / Fold change vs veh, TFCP2 / RFU, GMCL1 /// GMCL1P1 / Fold change vs veh, GMCL1 /// GMCL1P1 / RFU, AEBP2 / Fold change vs veh, AEBP2 / RFU, SNHG1 /// SNORD22 /// SNORD25 /// SNORD26 /// SNORD27 /// SNORD28 /// SNORD29 /// SNORD31 / Fold change vs veh, SNHG1 /// SNORD22 /// SNORD25 /// SNORD26 /// SNORD27 /// SNORD28 /// SNORD29 /// SNORD31 / Fold change (Aza/veh), C12orf56 (ProbeSet 11735607_a_at) / Fold change (ACY-1035/veh), C12orf56 (ProbeSet 11735607_a_at) / Fold change (Aza/veh), FGFR1OP (ProbeSet 11751329_s_at) / Fold change (ACY-1035/veh), FGFR1OP (ProbeSet 11751329_s_at) / Fold change (Aza/veh), VPS36 (ProbeSet 11739960_a_at) / Fold change (ACY-1035/veh), VPS36 (ProbeSet 11739960_a_at) / RFU SYPL1 (11715823_x_at) / Fold change /veh SYPL1 (11715823_x_at) / RFU IGFBP7 (11715501_s_at) / Fold change /veh IGFBP7 (11715501_s_at) / RFU REEP3 (11722064_at) / Fold change /veh REEP3 (11722064_at) / RFU IGLL1 (11728026_x_at) / Fold change /veh IGLL1 (11728026_x_at): dose or concentration left out as unconfirmed
Conditions: MV-4-11 cells, 48 hours

**Q.** How did the “RFU TPSAB1 /// TPSB2 (11721975_s_at)” value turn out when `Nc1ccc(-c2cccs2)cc1NC(=O)c1ccc2c(c1)cc(C1CC1)n2CCN1CCOCC1` [ACY-1035] was run?
**A.** 19.29 RFU
